Test results from patent US20220363705A1, “METHOD FOR MANUFACTURING REVAUDIOSIDE-D-CONTAINING CRYSTALLIZED PRODUCT, AND REVAUDIOSIDE-D-CONTAINING CRYSTALLIZED PRODUCT” (SUNTORY HOLDINGS LIMITED, priority 2019, published 2022).

Experiment: Saturated solubility in ethanol solvent (excess loaded, stirred 24 hours, 0.45-um filtrate measured with LCMS)
Assay type: physicochemical
Conditions: for saturated solubility used in calculation of the degree of supersaturation: 90% by mass of EtOH, 10° C.; for saturated dissolution concentration: 90% ethanol solvent at 10° C., according to FIG. 1
Experimental: The saturated solubility is herein measured according to the following method. That is, 100 ml of a solvent having a predetermined ethanol concentration (w/w) is placed in a container (having a volume of 100 ml or 200 ml, suitably 200 ml), the liquid temperature is set to 10° C. by a water bath in advance, and then the solvent is stirred at 200 rpm, and a target substance is loaded in an excessive amount (amount until suspension is made). After 24 hours, a filtrate is obtained by a 0.45-um membrane filter, and the amount of the target substance (RebA or RebD) included in the filtrate is measured with LCMS. LCMS here used is suitably LCMS 8050 manufactured by Shimadzu Corporation.
Specifically, 100 ml of a solvent having a predetermined ethanol concentration (w/w) was placed in a […] glass container (separable round-bottomed flask, Tokyo Rikakikai Co., Ltd.), set to a predetermined temperature by a water bath (PCC-7000, Tokyo Rikakikai Co., Ltd.) in advance, and then stirred (SPZ-100, Tokyo Rikakikai Co., Ltd.) at 200 rpm, and RebA (J-100, Morita Kagaku Kogyo Co., Ltd.) or RebD (Jining Renewal & Joint International, China) was loaded in an excessive amount (amount until suspension was achieved). After 24 hours, a filtrate was obtained by a 0.45-um membrane filter, the amount of RebA or RebD included in the filtrate was measured with LCMS (LCMS 8050 manufactured by Shimadzu Corporation), and the solubility curve was created. The results are illustrated in FIG. 1.

saturated solubility used in calculation of the degree of supersaturation [ppm] | saturated dissolution concentration | Compound
8270.5 | 8,250 ppm | C=C1C[C@@]23CC[C@H]4[C@@](C)(CCC[C@@]4(C)C(=O)O[C@@H]4O[C@H](CO)[C@@H](O)[C@H](O)[C@H]4O)[C@@H]2CC[C@]1(O[C@@H]1O[C@H](CO)[C@@H](O)[C@H](O[C@@H]2O[C@H](CO)[C@@H](O)[C@H](O)[C@H]2O)[C@H]1O[C@@H]1O[C@H](CO)[C@@H](O)[C@H](O)[C@H]1O)C3 [RebA, rebaudioside A]
99.33 | 99.3 ppm | C=C1C[C@@]23CC[C@H]4[C@@](C)(CCC[C@@]4(C)C(=O)O[C@@H]4O[C@H](CO)[C@@H](O)[C@H](O)[C@H]4O[C@@H]4O[C@H](CO)[C@@H](O)[C@H](O)[C@H]4O)[C@@H]2CC[C@]1(O[C@@H]1O[C@H](CO)[C@@H](O)[C@H](O[C@@H]2O[C@H](CO)[C@@H](O)[C@H](O)[C@H]2O)[C@H]1O[C@@H]1O[C@H](CO)[C@@H](O)[C@H](O)[C@H]1O)C3 [RebD, rebaudioside D]
